Results taken from PMC10244169, “Psychedelics promote plasticity by directly binding to BDNF receptor TrkB” (Nature Neuroscience, 2023).

Tests used:
TrkB (WT) dimerization = target: T1, TrkB (WT) dimerization (Rattus norvegicus, UniProt Q63604); assay: Split-luciferase PCA of TrkB dimerization in N2a cells; assay type: cell-based; settings: for Group mean (Mean 2; Control:Vehicle = 100), fig 4f: n=8; for Group mean (Mean 2; Vehicle:vehicle = 100), fig 4d: n=20; for TrkB dimerization time course, group mean (time 0 = 100): TRKB.wt; for TrkB dimerization (PCA), group mean (vehicle = 100): WT; for Group mean (Mean 2; Vehicle:Vehicle = 100), fig 4e: n=48
T1 construct: expressed in transfected cells; host or cells: N2a
T1 sequence (Q63604 32-821): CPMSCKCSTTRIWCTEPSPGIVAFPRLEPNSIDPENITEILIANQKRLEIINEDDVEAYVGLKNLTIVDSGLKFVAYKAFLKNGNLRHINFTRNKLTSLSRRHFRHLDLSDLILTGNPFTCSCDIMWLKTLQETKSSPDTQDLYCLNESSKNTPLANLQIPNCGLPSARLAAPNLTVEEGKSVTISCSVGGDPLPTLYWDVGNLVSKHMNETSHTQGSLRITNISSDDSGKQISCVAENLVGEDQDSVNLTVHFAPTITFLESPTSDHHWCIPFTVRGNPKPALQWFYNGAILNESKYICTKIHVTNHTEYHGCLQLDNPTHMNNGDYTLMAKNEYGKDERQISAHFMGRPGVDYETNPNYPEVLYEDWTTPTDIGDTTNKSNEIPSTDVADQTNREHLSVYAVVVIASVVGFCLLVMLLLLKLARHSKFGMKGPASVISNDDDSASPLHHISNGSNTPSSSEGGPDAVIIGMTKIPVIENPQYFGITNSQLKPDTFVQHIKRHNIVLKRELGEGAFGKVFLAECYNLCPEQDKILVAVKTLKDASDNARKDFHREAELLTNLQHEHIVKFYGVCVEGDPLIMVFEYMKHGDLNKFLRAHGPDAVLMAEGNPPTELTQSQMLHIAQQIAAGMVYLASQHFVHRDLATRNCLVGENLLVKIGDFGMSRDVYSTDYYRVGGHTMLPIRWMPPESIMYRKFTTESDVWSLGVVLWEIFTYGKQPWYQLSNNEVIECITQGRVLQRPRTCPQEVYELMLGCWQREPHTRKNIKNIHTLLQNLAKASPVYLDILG
T1 sequence (Q63604 32-821): as above
Method: Ketanserin, M100907 and TRKB.FC were added to the media 10 min before treatment. The PCA method was performed as previously described[11],[75],[76]. Split humanized Gaussia princeps luciferase (hGLuc) was cloned on the C-terminus of the reporter proteins TrkB (WT and Y433F) and lipid raft Fyn. If the reporter proteins that carry complementary halves of the luciferase interact, the enzyme can refold in its functional conformation and, upon addition of its substrate, produce luminescence proportionally to the amount of reporter proteins interacting at a given time. N2a cells were seeded in 96-well plates with opaque walls and transparent bottom (PerkinElmer, ViewPlate 96). Cells were transfected with Lipofectamine 2000 according to the manufacturer’s instructions 24 h post-plating with the PCA pair plasmids: phGLuc(1C)-TrkB(WT) or the mutant phGLuc(1C)-TrkB(Y433F) and phGLuc(2 C)-TrkB(WT) for the dimerization experiments; phGLuc(1C)-lipid raft Fyn and phGLuc(2C)-TrkB(WT) or phGLuc(2C)-TrkB(Y433F) for the lipid raft localization experiments. Forty-eight hours post transfection, cells were treated (40 min, 37 °C) in phenol red-free Dulbecco’s modified Eagle medium without serum. […] The PCA signal was detected with the substrate for the luciferase, native coelenterazine, which was injected into each well directly in the plate reader at a final concentration of […].

TrkB = target: T2, TrkB (Rattus norvegicus, UniProt Q63604); assay: biochemical; assay type: binding
T2 construct: expressed in transfected cells; host or cells: HEK293T
T2 sequence (Q63604 32-821): as above

[1] = tested on: dendritic arbor complexity of neuronal cultures; assay: Dendritogenesis (Sholl analysis) in neuronal cultures (WT and Y433F^+/−); assay type: cell-based, mouse
Method: In a separate set of experiments to study the effects of extracellular BDNF and 5-HT2A activation, cultures were also pretreated for 10 min with TrkB.FC (200 ng ml^−1) or M100907 (100 nM), respectively. Similar to treatment with the psychedelics, TrkB.FC and M100907 pretreatments were administered in cumulative doses and remained in the medium for the rest of the experiment. At DIV7, neurons were pre-incubated for 1 h with […] MgCl2 to prevent excitotoxicity, then neurons were transfected for the heterologous expression of mCherry. To minimize any possible interference of the transfection protocol upon the drug effect, transfection was done in the morning while treatment with psychedelics was always added in the evening. Twenty-four hours after transfection, neurons were fixed with 4% PFA for 20 min at room temperature, washed in PBS-T, blocked for 30 min with 3% BSA in PBS-T and incubated with chicken anti-MAP2 (Abcam, ab5392; 1:5,000, 1 h, room temperature). Then, coverslips were washed in PBS-T and incubated with Alexa Fluor 647-conjugated antibody goat anti-chicken (Invitrogen, A-21449; 1:1,000, 1 h, room temperature). Next, coverslips were washed in PBS-T and MilliQ water, and mounted in Dako fluorescence mounting medium (Agilent, S302380-2). Ten optical sections with a Z-step of 1.3 μm were acquired using a Zeiss LSM 710 confocal microscope with a LCI Plan/Neofluar 25×/0.8 lmm Korr DIC M27 objective. In the mCherry channel, the center of the soma was manually assigned and the number of dendritic intersections at fixed distances (every 5 μm) from the soma was automatically counted using the Sholl analysis plugin of ImageJ.

CCN(CC)C(=O)C1C=C2c3cccc4[nH]cc(c34)CC2N(C)C1 (stereo not shown) [LSD, lysergic acid diethylamide]
potentiation of BDNF effect on TrkB dimerization (TrkB (WT) dimerization; BDNF 0.1 ng ml^−1): potentiates the effects of very low concentrations of BDNF
Group mean (Mean 2; Control:Vehicle = 100), fig 4f (TrkB (WT) dimerization; LSD 1nM with BDNF 0.1ng/ml): 198.9
Group mean (Mean 2; Vehicle:vehicle = 100), fig 4d (TrkB (WT) dimerization; LSD 1 nM with M100907): 146.3
Group mean (Mean 2; Control:Vehicle = 100), fig 4f (TrkB (WT) dimerization; LSD 1nM, Vehicle (no BDNF)): 131.4
Group mean (Mean 2; Vehicle:vehicle = 100), fig 4d (TrkB (WT) dimerization; LSD 1 nM, Vehicle (no M100907)): 129.7
Group mean (Mean 2; Vehicle:vehicle = 100), fig 4d (TrkB (WT) dimerization; LSD 10 nM with M100907): 148
Group mean (Mean 2; Vehicle:vehicle = 100), fig 4d (TrkB (WT) dimerization; LSD 10 nM, Vehicle (no M100907)): 146.6
Group mean (Mean 2; Vehicle:vehicle = 100), fig 4d (TrkB (WT) dimerization; LSD 100 nM with M100907): 153.7
Group mean (Mean 2; Vehicle:vehicle = 100), fig 4d (TrkB (WT) dimerization; LSD 100 nM, Vehicle (no M100907)): 151.3
Group mean (Mean 2; Vehicle:vehicle = 100), fig 4d (TrkB (WT) dimerization; LSD 1 µM with M100907): 177.5
Group mean (Mean 2; Vehicle:vehicle = 100), fig 4d (TrkB (WT) dimerization; LSD 1 µM, Vehicle (no M100907)): 148.9
TrkB dimerization time course, group mean (time 0 = 100) (TrkB (WT) dimerization; time 15): 195
TrkB dimerization time course, group mean (time 0 = 100) (TrkB (WT) dimerization; time 60): 250.1
TrkB dimerization time course, group mean (time 0 = 100) (TrkB (WT) dimerization; time 120): 213
TrkB dimerization time course, group mean (time 0 = 100) (TrkB (WT) dimerization; time 240): 184.6
TrkB dimerization time course, group mean (time 0 = 100) (TrkB (WT) dimerization; time 480): 101
TrkB dimerization (TrkB (WT) dimerization; WT TrkB, N2a cells, 1 nM to 1 µM): fast and long-lasting increase in dimerization
TrkB dimerization (PCA), group mean (vehicle = 100) (TrkB (WT) dimerization; 1nM): 126.2
TrkB dimerization (PCA), group mean (vehicle = 100) (TrkB (WT) dimerization; 10nM): 166.6
TrkB dimerization (PCA), group mean (vehicle = 100) (TrkB (WT) dimerization; 100nM): 191.5
TrkB dimerization (PCA), group mean (vehicle = 100) (TrkB (WT) dimerization; 1uM): 201.7
Group mean (Mean 2; Vehicle:Vehicle = 100), fig 4e (TrkB (WT) dimerization; treatment alone (other factor Vehicle)): 209.8
Group mean (Mean 2; Vehicle:Vehicle = 100), fig 4e (TrkB (WT) dimerization; with TrkB.FC): 119.5
Ki (TrkB): 3.38 ± 1.39 nM
Bmax (best-fit, 1b) (TrkB; competition with ^3H-LSD): 104.9
h (best-fit, 1b) (TrkB; competition with ^3H-LSD): -0.5005
6g: Mean (dendritogenesis, Sholl analysis) ([1]; WT neurons, vehicle mean 32.96): 75.11
6g: Mean Diff. (vehicle vs. treatment), Bonferroni's multiple comparisons test ([1]; WT:vehicle minus WT:treatment): -42.15
6g: Mean (dendritogenesis, Sholl analysis) ([1]; Y433F+/- neurons, vehicle mean 44.44): 47.24
6g: Mean Diff. (vehicle vs. treatment), Bonferroni's multiple comparisons test ([1]; Y433F+/-:vehicle minus Y433F+/-:treatment): -2.791
dendritic arbor complexity ([1]; cultures from WT mice): enhance dendritic arbor complexity
dendritic arbor complexity ([1]; cultures from Y433F^+/− mice): not Y433F^+/− mice
dendritic arbor complexity, Mean Diff. (Vehicle:vehicle vs. group) ([1]; fig 6i, Bonferroni's multiple comparisons test): -41.23
dendritic arbor complexity, group mean (Mean 2) ([1]; fig 6i, treatment:pretreatment groups, Vehicle:vehicle mean 69.72): 110.9
Sholl analysis, Mean at distance from soma ([1]; fig 6j, distance from soma 10 µm): 8.895
Sholl analysis, Mean at distance from soma ([1]; fig 6j, distance from soma 15 µm): 10.2632
Sholl analysis, Mean at distance from soma ([1]; fig 6j, distance from soma 20 µm): 10.421
Sholl analysis, Mean at distance from soma ([1]; fig 6j, distance from soma 25 µm): 9.211
Sholl analysis, Mean at distance from soma ([1]; fig 6j, distance from soma 30 µm): 8.842
Sholl analysis, Mean at distance from soma ([1]; fig 6j, distance from soma 35 µm): 8.316
Sholl analysis, Mean at distance from soma ([1]; fig 6j, distance from soma 40 µm): 6.789
Sholl analysis, Mean at distance from soma ([1]; fig 6j, distance from soma 45 µm): 6.368
Sholl analysis, Mean at distance from soma ([1]; fig 6j, distance from soma 50 µm): 6.368
Sholl analysis, Mean at distance from soma ([1]; fig 6j, distance from soma 55 µm): 4.737
Sholl analysis, Mean at distance from soma ([1]; fig 6j, distance from soma 60 µm): 4.526
Sholl analysis, Mean at distance from soma ([1]; fig 6j, distance from soma 65 µm): 3.895
Sholl analysis, Mean at distance from soma ([1]; fig 6j, distance from soma 70 µm): 3.526
Sholl analysis, Mean at distance from soma ([1]; fig 6j, distance from soma 75 µm): 3.158
Sholl analysis, Mean at distance from soma ([1]; fig 6j, distance from soma 80 µm): 3.158
Sholl analysis, Mean at distance from soma ([1]; fig 6j, distance from soma 85 µm): 3.316
Sholl analysis, Mean at distance from soma ([1]; fig 6j, distance from soma 90 µm): 3.105
Sholl analysis, Mean at distance from soma ([1]; fig 6j, distance from soma 95 µm): 3.211
Sholl analysis, Mean at distance from soma ([1]; fig 6j, distance from soma 100 µm): 2.842
Sholl analysis, Mean at distance from soma ([1]; fig 6h, distance from soma 25 µm): 4.059
Sholl analysis, Mean at distance from soma ([1]; fig 6h, distance from soma 30 µm): 3.529
Sholl analysis, Mean at distance from soma ([1]; fig 6h, distance from soma 35 µm): 3
Sholl analysis, Mean at distance from soma ([1]; fig 6h, distance from soma 40 µm): 3.059
Sholl analysis, Mean at distance from soma ([1]; fig 6h, distance from soma 45 µm): 2.412
Sholl analysis, Mean at distance from soma ([1]; fig 6h, distance from soma 50 µm): 2.471
Sholl analysis, Mean at distance from soma ([1]; fig 6h, distance from soma 55 µm): 2.294
Sholl analysis, Mean at distance from soma ([1]; fig 6h, distance from soma 60 µm): 1.882
Sholl analysis, Mean at distance from soma ([1]; fig 6h, distance from soma 65 µm): 1.765
Sholl analysis, Mean at distance from soma ([1]; fig 6h, distance from soma 70 µm): 1.294
Sholl analysis, Mean at distance from soma ([1]; fig 6h, distance from soma 75 µm): 1.353
Sholl analysis, Mean at distance from soma ([1]; fig 6h, distance from soma 80 µm): 1.353
Sholl analysis, Mean at distance from soma ([1]; fig 6h, distance from soma 85 µm): 1
Sholl analysis, Mean at distance from soma ([1]; fig 6h, distance from soma 90 µm): 1.059
Sholl analysis, Mean at distance from soma ([1]; fig 6h, distance from soma 95 µm): 1
Sholl analysis, Mean at distance from soma ([1]; fig 6h, distance from soma 100 µm): 0.7059
6h: Mean (Sholl analysis) ([1]; first 6h table (N as WT), distance from soma 10 µm): 6.789
6h: Mean (Sholl analysis) ([1]; first 6h table (N as WT), distance from soma 15 µm): 8.684
6h: Mean (Sholl analysis) ([1]; first 6h table (N as WT), distance from soma 20 µm): 8.526
6h: Mean (Sholl analysis) ([1]; first 6h table (N as WT), distance from soma 25 µm): 6.474
6h: Mean (Sholl analysis) ([1]; first 6h table (N as WT), distance from soma 30 µm): 6
6h: Mean (Sholl analysis) ([1]; first 6h table (N as WT), distance from soma 35 µm): 5.211
6h: Mean (Sholl analysis) ([1]; first 6h table (N as WT), distance from soma 40 µm): 3.632
6h: Mean (Sholl analysis) ([1]; first 6h table (N as WT), distance from soma 45 µm): 3.474
6h: Mean (Sholl analysis) ([1]; first 6h table (N as WT), distance from soma 50 µm): 3
6h: Mean (Sholl analysis) ([1]; first 6h table (N as WT), distance from soma 55 µm): 2.684
6h: Mean (Sholl analysis) ([1]; first 6h table (N as WT), distance from soma 60 µm): 3.105
6h: Mean (Sholl analysis) ([1]; first 6h table (N as WT), distance from soma 65 µm): 2.579
6h: Mean (Sholl analysis) ([1]; first 6h table (N as WT), distance from soma 70 µm): 2.421
6h: Mean (Sholl analysis) ([1]; first 6h table (N as WT), distance from soma 75 µm): 2.263
6h: Mean (Sholl analysis) ([1]; first 6h table (N as WT), distance from soma 80 µm): 2.421
6h: Mean (Sholl analysis) ([1]; first 6h table (N as WT), distance from soma 85 µm): 2
6h: Mean (Sholl analysis) ([1]; first 6h table (N as WT), distance from soma 90 µm): 2.421
6h: Mean (Sholl analysis) ([1]; first 6h table (N as WT), distance from soma 95 µm): 1.632
6h: Mean (Sholl analysis) ([1]; first 6h table (N as WT), distance from soma 100 µm): 1.789
6h: Mean (Sholl analysis) ([1]; second 6h table (N as Y433F), distance from soma 10 µm): 5.294
6h: Mean (Sholl analysis) ([1]; second 6h table (N as Y433F), distance from soma 15 µm): 4.941
6h: Mean (Sholl analysis) ([1]; second 6h table (N as Y433F), distance from soma 20 µm): 4.765
